# In ChEMBL document CHEMBL4052777, “Synthesis of novel hybrids of pyrazole and coumarin as dual inhibitors of COX-2 and 5-LOX” (Bioorg Med Chem Lett, 2017):
# Key:
# HeLa = assay: cells; details: Homo sapiens, 48 h
# HEK-293T = assay: Antiproliferative activity against human 293T cells after 48 hrs by MTT assay; assay type: cell-based
# HT-29 = assay: cells; details: Homo sapiens, HT-29, 48 h
# Description: Antiproliferative activity against human HT-29 cells after 48 hrs by MTT assay
# A549 = assay: cells; details: Homo sapiens, A549, 48 h
# SMMC-7721 = assay: Antiproliferative activity against human SMMC7721 cells after 48 hrs by MTT assay; assay type: functional, cell-based; details: SMMC-7721, 48 h
IC50 (HeLa) [µM],IC50 (HT-29) [µM],IC50 (A549) [µM],IC50 (SMMC-7721) [µM],Compound,IC50 (HEK-293T) [µM]
42.4,22.7,21.1,19.9,O=c1ccc2ccc(O)cc2o1 [UMBELLIFERONE],190
11.1,8.47,7.68,5.96,Cc1ccc(-c2cc(C(F)(F)F)nn2-c2ccc(S(N)(=O)=O)cc2)cc1 [CELECOXIB],112
